# Where no end group is shown, it is not given here.
# Key:
# [1] = tested on: Hormoconis resinae (HR) ATCC 20267; format: cell-based
# Experimental: (§1) All of the bacterial species were grown overnight at 37 °C in LB broth. 10^7 CFU/mL of cells were resuspended in fresh culture and grown until the mid log phase. , The bacterial cells were adjusted to a concentration of 5 × 10^5 CFU/mL to quantify the MIC. Equal volumes of the respective bacterial cultures were incubated with the serially diluted peptides in 96-well microtiter plate and incubated overnight at 37 °C in ambient air. Microorganisms without peptides were treated as the positive control, while uninoculated broth was used as the negative control. The MIC was taken as the lowest peptide concentration at which observable bacteria growth was inhibited, as measured by a microplate reader (Biotek Synergy H1 microplate reader). Experiments were performed in triplicates, and the mean MIC values were determined. A similar study was performed to understand the effect of peptide purity, i.e., ranging from 70 to 95%, on the peptide MIC.
# The same experimental procedures that were conducted for the antibacterial assay were used to determine the MIC of the peptides against the fungal strain, H. resinae.
# [2] = tested on: microbial clusters MY, KR, DN, MC, BL, RM, SP, PA, HR; assay: Broad-spectrum activity score (in-house scoring matrix); conditions: sum over 9 microbial clusters: (+) = 1, (X) = 0, Fuel x = -1
# Experimental: Table S4. Summarizing the broad-spectrum activity of the peptides, considering the MIC value/ efficacy to control microbial growth upon fuel co-incubation
# Peptides Bacterial clusters Fungal
# Actinobacteria Firmicutes Proteobacteria Asco- […]
# Peptides identified based on the scoring matrix, where (+) =1 (implying peptide activity in fuel environment); (X) = 0 (implying no activity in the desired range, indicated by microbial proliferation); Fuel x = -1(implying no activity in fuel environment).
# Clearly, P17 is the best performing peptide in vitro across diverse microbial phyla as well as when incubated in the fuel environment. Based on the activity of the selected peptides, the best
# [3] = tested on: Micrococcus yunnanensis (MY); assay: Effectiveness of peptides on spiked fuel samples (aqueous layer); format: cell-based; set-up: key: (+) =1 (implying peptide activity in fuel environment); (X) = 0 (implying no activity in the desired range, indicated by microbial proliferation); Fuel x = -1(implying no activity in fuel environment); conditions: initial screening in spiked fuel
# Experimental: (§2) To study the partitioning of microbes in fuel tanks, filter-sterilized fuel was mixed with BH medium in a 1:1 (v/v) ratio. The inoculum was added to the aqueous phase at the bottom to simulate growth in the aqueous layer of fuel tanks and incubated aerobically at 30 °C for 30 days. Visible growth was assessed, and aliquots from both the aqueous and fuel phases were plated on nutrient agar plates to evaluate microbial growth. Peptides were initially added to the aqueous layer of microbially spiked fuel samples for screening the effectiveness in the fuel environment. The study was further extended over a longer duration, and incubated under aerobic conditions at 30 °C for 30 days. Microbial growth was monitored at regular intervals by plating aliquots from the aqueous layer on the nutrient agar plates.
# (§3) The engineered peptides were administered at their respective MICs to the aqueous layer of simulated fuel samples, and samples from both the aqueous and solvent (fuel) layers were removed at intervals of 7, 14, 21, and 30 days and plated on LBA plates to assess cell viability (Table S5).
# [4] = tested on: Macrococcus caseolyticus (MC); assay: as above; format: cell-based; set-up: key: (+) =1 (implying peptide activity in fuel environment); (X) = 0 (implying no activity in the desired range, indicated by microbial proliferation); Fuel x = -1(implying no activity in fuel environment); conditions: initial screening in spiked fuel
# Experimental: as §2, §3
# [5] = tested on: Dermacoccus nishinomiyaensis (DN); assay: as above; format: cell-based; set-up: key: (+) =1 (implying peptide activity in fuel environment); (X) = 0 (implying no activity in the desired range, indicated by microbial proliferation); Fuel x = -1(implying no activity in fuel environment); conditions: initial screening in spiked fuel
# Experimental: as §2, §3
# [6] = tested on: Kocuria rosea (KR); assay: as above; format: cell-based; set-up: key: (+) =1 (implying peptide activity in fuel environment); (X) = 0 (implying no activity in the desired range, indicated by microbial proliferation); Fuel x = -1(implying no activity in fuel environment); conditions: initial screening in spiked fuel
# Experimental: as §2, §3
# [7] = tested on: Bacillus licheniformis (BL); assay: as above; format: cell-based; set-up: key: (+) =1 (implying peptide activity in fuel environment); (X) = 0 (implying no activity in the desired range, indicated by microbial proliferation); Fuel x = -1(implying no activity in fuel environment); conditions: initial screening in spiked fuel
# Experimental: as §2, §3
# [8] = tested on: Roseomonas mucosa (RM); assay: as above; format: cell-based; set-up: key: (+) =1 (implying peptide activity in fuel environment); (X) = 0 (implying no activity in the desired range, indicated by microbial proliferation); Fuel x = -1(implying no activity in fuel environment); conditions: initial screening in spiked fuel
# Experimental: as §2, §3
# [9] = tested on: Hormoconis resinae (HR); assay: as above; format: cell-based; set-up: key: (+) =1 (implying peptide activity in fuel environment); (X) = 0 (implying no activity in the desired range, indicated by microbial proliferation); Fuel x = -1(implying no activity in fuel environment); conditions: initial screening in spiked fuel
# Experimental: as §2, §3
# [10] = tested on: Pseudomonas aeruginosa (PA); assay: as above; format: cell-based; set-up: key: (+) =1 (implying peptide activity in fuel environment); (X) = 0 (implying no activity in the desired range, indicated by microbial proliferation); Fuel x = -1(implying no activity in fuel environment); conditions: initial screening in spiked fuel
# Experimental: as §2, §3
# [11] = tested on: Sphingomonas paucimobilis (SP); assay: as above; format: cell-based; set-up: key: (+) =1 (implying peptide activity in fuel environment); (X) = 0 (implying no activity in the desired range, indicated by microbial proliferation); Fuel x = -1(implying no activity in fuel environment); conditions: initial screening in spiked fuel
# Experimental: as §2, §3
# [12] = HPLC retention time as a function of peptide hydrophobicity; format: physicochemical; conditions: chromatographic, Polaris 5 C18-A reverse phase, 0.1% TFA water / 0.1% TFA acetonitrile gradient, 30 min, 300 μM peptide
# Experimental: The purity of the peptides was ascertained by high-performance liquid chromatography (HPLC) using Polaris 5 C18-A […] × 4.6 mm reverse phase Zorbax columns from Agilent Technologies. The buffer system contained 0.1% (v/v) TFA in 100% water and 0.1% (v/v) TFA in 100% acetonitrile. Each peptide sample contained 300 μM peptides dissolved in an acetonitrile–water (1:4) mixture. A constant gradient of the two solvent systems was used to generate the chromatogram for 30 min after sample injection.
# [13] = tested on: Kocuria rosea (KR) ATCC 186; format: cell-based
# Experimental: as §1
# [14] = tested on: Macrococcus caseolyticus (MC) ATCC 13548; format: cell-based
# Experimental: as §1
# [15] = tested on: Bacillus licheniformis (BL) ATCC 14580; format: cell-based; conditions: ATCC 14580
# Experimental: as §1
# [16] = tested on: Micrococcus yunnanensis (MY) ATCC 12698; format: cell-based
# Experimental: as §1
# [17] = tested on: Pseudomonas aeruginosa (PA) ATCC 39327; format: cell-based; conditions: ATCC 39327
# Experimental: as §1
# [18] = tested on: Sphingomonas paucimobilis (SP); format: cell-based
# Experimental: as §1
# [19] = tested on: Roseomonas mucosa (RM) ATCC BAA-692; format: cell-based
# Experimental: as §1
# [20] = tested on: Dermacoccus nishinomiyaensis (DN) ATCC 29093; format: cell-based
# Experimental: as §1
Compound,MIC [1] [µM],Score [2],activity considering MIC value/efficacy upon fuel co-incubation [3],activity considering MIC value/efficacy upon fuel co-incubation [4],activity considering MIC value/efficacy upon fuel co-incubation [5],activity considering MIC value/efficacy upon fuel co-incubation [6],activity considering MIC value/efficacy upon fuel co-incubation [7],activity considering MIC value/efficacy upon fuel co-incubation [8],activity considering MIC value/efficacy upon fuel co-incubation [9],activity considering MIC value/efficacy upon fuel co-incubation [10],activity considering MIC value/efficacy upon fuel co-incubation [11],"R t, retention time of peptide on HPLC column as a function of peptide hydrophobicity [12] [min]",MIC [13] [µM],MIC [14] [µM],MIC [15] [µM],MIC [16] [µM],MIC [17] [µM],MIC [18] [µM],MIC [19] [µM],MIC [20] [µM]
CC[C@H](C)[C@H](N)C(=O)N[C@H](C(=O)N1CCC[C@H]1C(=O)N[C@@H](Cc1c[nH]c2ccccc12)C(=O)N[C@@H](CCCCN)C(=O)N[C@@H](Cc1c[nH]c2ccccc12)C(=O)N1CCC[C@H]1C(=O)N[C@@H](Cc1c[nH]c2ccccc12)C(=O)N[C@@H](Cc1c[nH]c2ccccc12)C(=O)N1CCC[C@H]1C(=O)N[C@@H](Cc1c[nH]c2ccccc12)C(=O)N[C@@H](CCCNC(=N)N)C(=O)N[C@@H](CCCNC(=N)N)C(=O)O)[C@@H](C)CC [P13],7.8,2,+,+,X,Fuel x,+,X,Fuel x,X,+,12.084,3.9,3.9,3.9,0.9,7.8,0.9,–,–
ILPWKWPWWPWRK [P2],–,2,X,+,Fuel x,+,+,Fuel x,X,X,+,12.624,0.9,1.9,0.9,–,–,0.9,0.9,0.9
ILPWKWPFWPWRR [P7],1.95,3,+,X,X,X,+,+,Fuel x,X,+,12.156,–,–,0.9,0.9,31.25,0.9,0.9,–
ILPWKWPWWVWRR [P5],62.5,3,+,X,+,Fuel x,+,X,X,X,+,12.045,0.9,–,0.9,0.9,31.25,0.9,–,0.9

# Source: article PMC12442081, “Combating Fuel Biocontamination: Tailored Antimicrobial Peptides and an Innovative Delivery Strategy” (ACS Applied Bio Materials, 2025)
